Measured values: patent US20250340560A1, “SUBSTITUTED PYRAZOLO[1,5-a]PYRIMIDINES AS BRUTON'S TYROSINE KINASE MODULATORS” (BEIGENE SWITZERLAND GMBH, priority 2013, published 2025)
Where two headings read alike, the source gives them in different places.

Key:
[1] = molecular target: phosphorylated Btk at Tyr223 in Ramos cells (Homo sapiens (Human), UniProt Q06187); experiment: BTK pY223 cellular assay (HTRF) in Ramos cells; type: cell-based; conditions: 1 hour compound incubation, pervanadate or Na3VO4 stimulation
Procedure: Btk pY223 cellular assay is a HTRF based assay intended to determine the endogenous levels of phosphorylated Btk at Tyr223.
Briefly, Ramos cells were serum starved in 0.5% FBS-containing RPMI1640 for 2 hours. Following starvation, the cells were incubated with compounds to be detected at various concentrations in a CO2 incubator for 1 hour. After incubation, cells were stimulated with 1 mM pervanadate (PV) or Na3VO4 (OV) for 20 min. Then, the cells were spinned down and lysed with 1× lysis buffer at RT for 10 min (4× lysis buffer supplied in the kit). During the incubation, 1× antibody mix was prepared by diluting anti-Btk-d2 and anti-pBtk-K in detection buffer (supplied in the kit). […] After that, 18 ul of cell lysate was transferred to the assay plate pre-loaded with antibody solution. After mixing gently and spinning briefly, the plate was sealed up and kept in dark at RT for 18 hours. […] IC50 values were calculated with GraphPad Prism software using the sigmoidal dose-response function.

Recombinant Btk = Recombinant Btk (Homo sapiens (Human), UniProt Q06187); experiment: BTK kinase assay (TR-FRET); conditions: 1 hour pre-incubation, ATP at Km
Sequence of Recombinant Btk (Q06187 whole entry): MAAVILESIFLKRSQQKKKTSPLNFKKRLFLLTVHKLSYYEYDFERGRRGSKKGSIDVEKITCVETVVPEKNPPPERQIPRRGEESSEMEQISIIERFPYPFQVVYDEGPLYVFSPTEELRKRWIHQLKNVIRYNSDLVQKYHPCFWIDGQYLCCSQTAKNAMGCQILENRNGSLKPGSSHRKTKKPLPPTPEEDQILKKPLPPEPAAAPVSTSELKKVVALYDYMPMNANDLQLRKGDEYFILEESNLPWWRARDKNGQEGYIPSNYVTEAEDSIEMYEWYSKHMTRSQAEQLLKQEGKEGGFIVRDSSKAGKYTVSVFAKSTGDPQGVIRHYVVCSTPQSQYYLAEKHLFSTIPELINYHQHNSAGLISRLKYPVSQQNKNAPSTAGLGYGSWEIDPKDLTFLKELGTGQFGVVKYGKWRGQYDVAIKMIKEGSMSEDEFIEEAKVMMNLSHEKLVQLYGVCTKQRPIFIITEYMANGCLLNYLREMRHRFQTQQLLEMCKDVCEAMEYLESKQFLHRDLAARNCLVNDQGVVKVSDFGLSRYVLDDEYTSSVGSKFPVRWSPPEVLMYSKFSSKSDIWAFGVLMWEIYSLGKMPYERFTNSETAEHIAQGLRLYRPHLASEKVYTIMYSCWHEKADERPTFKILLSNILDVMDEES

Sequence of phosphorylated Btk at Tyr223 in Ramos cells (Q06187 whole entry): as above

Structure (SMILES)	IC50 [1] [nM]	IC50 (Recombinant Btk; IC50 (nM) Btk) [nM]	IC50 (Recombinant Btk; read-out: IC50 (nM) Btk) [nM]
C=CC(=O)Nc1ccccc1C1CCNc2c(C(N)=O)c(-c3ccc(OCc4ccccc4)cc3)nn21 (single isomer, unassigned) [Compound 10a]	2.2	0.51	–
C=CC(=O)N1CC[C@@H]2C(CNc3c(C(N)=O)c(-c4ccc(Oc5ccccc5)cc4)nn32)C1 (single isomer, unassigned) [Compound 30a]	5.6	–	0.66
CC#CC(=O)NCC1CCNc2c(C(N)=O)c(-c3ccc(Oc4ccc(F)cc4F)cc3)nn21 (centres unmarked) [Compound 190, 7-(But-2-ynamidomethyl)-2-(4-(2,4-difluorophenoxy)phenyl)-4,5,6,7-tetrahydropyrazolo[1,5-a]pyrimidine-3-carboxamide]	–	–	38
NC(=O)c1c(-c2ccc(Oc3ccccc3)cc2)nn2c1NCC[C@H]2C1CCN(C(=O)C#CCO)CC1 [Compound 191, (S)-7-(1-(4-Hydroxybut-2-ynoyl)piperidin-4-yl)-2-(4-phenoxyphenyl)-4,5,6,7-tetrahydropyrazolo[1,5-a]pyrimidine-3-carboxamide]	–	–	0.67
COCC#CC(=O)N1CCC([C@@H]2CCNc3c(C(N)=O)c(-c4ccc(Oc5ccccc5)cc4)nn32)CC1 [Compound 192, (S)-7-(1-(4-Methoxybut-2-ynoyl)piperidin-4-yl)-2-(4-phenoxyphenyl)-4,5,6,7-tetrahydropyrazolo[1,5-a]pyrimidine-3-carboxamide]	–	–	0.91
CCCC#CC(=O)N1CCC([C@@H]2CCNc3c(C(N)=O)c(-c4ccc(Oc5ccccc5)cc4)nn32)CC1 [Compound 193, (S)-7-(1-(Hex-2-ynoyl)piperidin-4-yl)-2-(4-phenoxyphenyl)-4,5,6,7-tetrahydropyrazolo[1,5-a]pyrimidine-3-carboxamide]	–	–	3.9
CC#CC(=O)N1CCC(C2CCNc3c(C(N)=O)c(-c4ccc(Oc5ccc(F)cc5)cc4)nn32)CC1 (centres unmarked) [Compound 194, 7-(1-(But-2-ynoyl)piperidin-4-yl)-2-(4-(4-fluorophenoxy)phenyl)-4,5,6,7-tetrahydropyrazolo[1,5-a]pyrimidine-3-carboxamide]	–	–	45
CC#CC(=O)N1CCC(C2CCNc3c(C(N)=O)c(-c4ccc(Oc5cccc(Cl)c5)cc4)nn32)CC1 (centres unmarked) [Compound 195, 7-(1-(But-2-ynoyl)piperidin-4-yl)-2-(4-(3-chlorophenoxy)phenyl)-4,5,6,7-tetrahydropyrazolo[1,5-a]pyrimidine-3-carboxamide]	–	–	8
C=CC(=O)Nc1ccccc1C1CCNc2c(C(N)=O)c(-c3ccc(F)c(Cl)c3)nn21 (centres unmarked) [Compound 196, 7-(2-Acrylamidophenyl)-2-(3-chloro-4-fluorophenyl)-4,5,6,7-tetrahydropyrazolo[1,5-a]pyrimidine-3-carboxamide]	–	–	1.1
